Broadly, the pEC50 is the EC50 on a negative log10 scale, so that one unit is a factor of ten. As usually defined, the CC50 is the concentration giving 50% cytotoxicity.

Drawing on patent publication US20110052534A1, “Imidazopyridazine Compounds for Treating Viral Infections” (priority 2009, published 2011), this text covers EC50 and CC50 for seven compounds.

Structures are written as SMILES. pEC50: −log10 of the molar value. Where a name gives a salt, the structure may show the parent alone. Read-outs that look alike come from different tables or passages of the source. Bounds are passed on as bounds.

What all share (format): cell-based
The subject of data set [1] is HCV genotype 1b replicon (ET replicon). Nature of the data set: microbe, parasite or virus in culture. The settings on record: Hepatitis C virus, luciferase activity after 48 hours, read-out: HCV Genotype 1B Replicon EC50. The source says:
(§1) Two cell lines were used for screening of compounds for inhibiting HCV RNA replication (genoytype 1a and 1b). Genotype la replicon cells, are a Huh-7 derived cell line bearing the genotype 1a H77NS3-5B bicistronic subgenomic replicon. See, Blight, et al., J. Virol. (2003) 77(5): 3181-3190.
(§2) The genotype 1a replicon contains several adaptive mutations (NS4B Q31H, NS5A K68R, NS5A S232I), the luciferase gene and encodes for neomycin resistance. The genotype 1b replicon, also referred to as the ET replicon, is stably transfected with RNA transcripts harboring a I389luc-ubi-neo/NS3-3′/ET replicon with firefly luciferase-ubiquitin-neomycin phosphotransferase fusion protein and EMCV-IRES driven NS3-5B polyprotein containing the cell culture adaptive mutations (E1202G; T12801; K1846T) See, Kreiger, et al., Journal of Virology 75:4614-4624 (2001). Both cell lines were grown in DMEM, supplemented with 10% fetal calf serum, 2 mM Glutamine, Penicillin (100 IU/mL)/Streptomycin (100 μg/mL), 1×nonessential amino acids, and 250 μg/mL G418 (“Geneticin”). They were all available through Life Technologies (Bethesda, Md.). The cells were plated at 0.5×10^4 cells/well in 384 well plates containing compounds. The final concentration of compounds ranged between 0.1 nM to 50 μM and the final DMSO concentration of 0.5%.
(§3) Luciferase activity was measured 48 hours later by adding a Steady glo (Promega, Madison, Wis.). Percent inhibition of replication data was plotted relative to no compound control. Under the same condition, cytotoxicity of the compounds was determined using cell titer glo (Promega, Madison, Wis.). EC50 values were determined from a 10 point dose response curve using 2-4 fold serial dilutions for each compound, which spans a concentration range of at least a 1000 fold. Replicon EC50 values, the concentration of compound required to inhibit 50% of the assay response, were calculated by curve fitting data to the Hill equation, using a non-linear least-squares curve-fitting program. The software tested the data for quality and rejected compounds with high and low activity before fitting the equation below.
(§4) Analysis was performed using an XC50 module and BioAssay Enterprise (Cambridge Soft).
In general terms: In antiviral work, replicon cells carry a viral genome segment that copies itself.

The subject of data set [2] is HCV genotype 1a H77 NS3-5B bicistronic subgenomic replicon. Nature of the data set: microbe, parasite or virus in culture. The settings on record: Hepatitis C virus, luciferase activity after 48 hours, read-out: HCV Genotype 1A Replicon EC50.
From the text: as §1, §2, §3, §4

The next data set is described as follows: in vitro. To be noted: human; Table 3; cytotoxicity, cell titer glo, same condition as replicon assay; read-out: HCV Genotype 1B CC50.
From the text: as §2, §3
Background: In ATP-based viability assays light output follows the ATP content of the culture.

`CCCOc1ccc(-c2cc(C(C(=O)OCCCCN(C)C)n3cc4nc(-c5cccc(F)c5F)nc-4cn3)on2)c(C(F)(F)F)c1` (stereo not shown) [Compound 173, 4-(Dimethylamino)butyl [2-(2,3-difluorophenyl)-5H-imidazo[4,5-d]pyridazin-5-yl]{3-[4-(propyloxy)-2-(trifluoromethyl)phenyl]-5-isoxazolyl}acetate dihydrochloride]: the pEC50 in data set [1] (Table 2) is 8.52; in data set [2] (Table 2), 7.70.

With `COC(=O)C(c1cc(-c2ccc(C3CC3)cc2C(F)(F)F)no1)n1cc2nc(-c3cccc(F)c3F)nc-2cn1` (stereo not shown) [Compound 178, Methyl {3-[4-cyclopropyl-2-(trifluoromethyl)phenyl]-5-isoxazolyl}[2-(2,3-difluorophenyl)-5H-imidazo[4,5-d]pyridazin-5-yl]acetate], the pEC50 in data set [1] (Table 3) was 8.00; in data set [2] (Table 3) it was 7.30. The CC50 in “in vitro” was found to be 25 µM.

Consider `O=C(OCCOCCO)C(c1cc(-c2ccc(C3CC3)cc2C(F)(F)F)no1)n1cc2nc(-c3cccc(F)c3F)nc-2cn1` (stereo not shown) [Compound 179, 2-[(2-hydroxyethyl)oxy]ethyl {3-[4-cyclopropyl-2-(trifluoromethyl)phenyl]-5-isoxazolyl}[2-(2,3-difluorophenyl)-5H-imidazo[4,5-d]pyridazin-5-yl]acetate], for which the pEC50 in data set [1] (Table 3) is 7.89; in data set [2] (Table 3), 7.10. For the same compound, in “in vitro”, the CC50 amounted to 50 µM.

`CC(CO)(CO)COC(=O)C(c1cc(-c2ccc(C3CC3)cc2C(F)(F)F)no1)n1cc2nc(-c3cccc(F)c3F)nc-2cn1` (stereo not shown) [Compound 180, 3-hydroxy-2-(hydroxymethyl)-2-methylpropyl {3-[4-cyclopropyl-2-(trifluoromethyl)phenyl]-5-isoxazolyl}[2-(2,3-difluorophenyl)-5H-imidazo[4,5-d]pyridazin-5-yl]acetate]: the pEC50 in data set [1] (Table 3) was 8.10; in data set [2] (Table 3), 7.10.

As for `O=C(OCCCO)C(c1cc(-c2ccc(C3CC3)cc2C(F)(F)F)no1)n1cc2nc(-c3cccc(F)c3F)nc-2cn1` (stereo not shown) [Compound 182, 3-Hydroxypropyl {3-[4-cyclopropyl-2-(trifluoromethyl)phenyl]-5-isoxazolyl}[2-(2,3-difluorophenyl)-5H-imidazo[4,5-d]pyridazin-5-yl]acetate], the pEC50 was 7.89 in data set [1] (Table 3) and 7.20 in data set [2] (Table 3). In the data set “in vitro”, the CC50 was greater than 50 µM.

With `CCCOC(=O)C(c1cc(-c2ccc(C3CC3)cc2C(F)(F)F)no1)n1cc2nc(-c3cccc(F)c3F)nc-2cn1` (stereo not shown) [Compound 184, Propyl {3-[4-cyclopropyl-2-(trifluoromethyl)phenyl]-5-isoxazolyl}[2-(2,3-difluorophenyl)-5H-imidazo[4,5-d]pyridazin-5-yl]acetate], the pEC50 in data set [1] (Table 3) is 7.89; in data set [2] (Table 3), 7.10. In addition, the CC50 in “in vitro” was found to be 25 µM.

`O=C(OCCCOP(=O)(O)O)C(c1cc(-c2ccc(C3CC3)cc2C(F)(F)F)no1)n1cc2nc(-c3cccc(F)c3F)nc-2cn1` (stereo not shown) [Compound 186, 3-(phosphonooxy)propyl {3-[4-cyclopropyl-2-(trifluoromethyl)phenyl]-5-isoxazolyl}[2-(2,3-difluorophenyl)-5H-imidazo[4,5-d]pyridazin-5-yl]acetate]: the pEC50 in data set [1] (Table 3) was 8.00; in data set [2] (Table 3), 7.10. For the same compound, the CC50 in “in vitro” came out at 50 µM.
